# Experimental data published in BindingDB's records for doi:10.1021/acs.jnatprod.8b00574 (Institute of Medicinal and Aromatic Plants, 2018).
# Legend:
# [1] = Inhibition of thrombin in human platelet rich plasma assessed as reduction in ADP-induced platelet aggregation after 5 mins
# [2] = Inhibition of thrombin in human washed platelets assessed as reduction in thrombin-induced platelet aggregation after 5 mins
# [3] = Inhibition of thrombin in human platelet rich plasma assessed as reduction in thrombin-induced platelet aggregation after 5 mins
# [4] = Inhibition of thrombin in human platelet rich plasma assessed as reduction in arachidonic acid-induced platelet aggregation after 5 mins
structure (smiles),measurement,setting,value
CC[C@H](CC[C@@H](C)[C@H]1CC[C@H]2[C@@H]3CC=C4C[C@@H](O)CC[C@]4(C)[C@H]3CC[C@]12C)C(C)C [stigmast-5-en-3beta-ol],IC50,[1],1500 µM
same,IC50,[2],9.2 µM
same,IC50,[3],10.5 µM
same,IC50,[4],1500 µM
